The record followed here is patent US20190345138A1, “HETEROCYCLIC AMIDES AS KINASE INHIBITORS” (GlaxoSmithKline Intellectual Property Development Limited, priority 2016, published 2019).

Several values for one entry are separate records, joined by “and”; a condition that tells them apart may be missing. Identical values can stand only once.

In assay [1] the test system is human monocytic leukemia U937 cells. The assay is described as follows: necroptosis assay in U937 cells. In kind it is cell-based. Particulars: Homo sapiens, U-937, U937 cells; viability by cellular ATP (Cell Titer-Glo); read-out: pIC50, inhibited necrosis in U937 cells (converted). Here is the method: The efficacy of RIP1 inhibitors can be tested […] in vitro using a human monocytic leukemia U937 or mouse L929 fibrosarcoma cells in a necroptosis assay. As determined using the method described in S. He et al., Cell, 137(6):1100-1111 (2009) and International Patent Appln. No. PCT/IB2014/059004, now, International Patent Appln. Pub.
Viability was measured by quantitating cellular levels of ATP using the Cell Titer-Glo kit. All data are means±standard deviation of the mean.

A further assay deals with T1, RIP1 kinase (Homo sapiens, UniProt Q13546).
T1 sequence (Q13546 1-375 limits assumed): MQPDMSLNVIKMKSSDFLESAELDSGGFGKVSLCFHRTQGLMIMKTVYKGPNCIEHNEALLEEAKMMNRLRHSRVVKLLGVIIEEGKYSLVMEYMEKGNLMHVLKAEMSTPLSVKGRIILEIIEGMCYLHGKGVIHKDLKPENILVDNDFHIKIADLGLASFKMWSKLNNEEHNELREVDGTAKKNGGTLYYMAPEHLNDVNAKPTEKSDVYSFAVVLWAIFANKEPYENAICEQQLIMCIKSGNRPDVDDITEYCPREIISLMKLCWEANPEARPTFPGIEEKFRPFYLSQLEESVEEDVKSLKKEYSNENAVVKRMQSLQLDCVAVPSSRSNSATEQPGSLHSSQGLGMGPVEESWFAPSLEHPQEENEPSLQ
The assay is described as follows: fluorescent polarization based binding assay. As to conditions: mean of a minimum of 2 experiments. The source says:
A fluorescent polarization based binding assay was used to assess the activity of the compounds of this invention, the details of which are disclosed in International Patent Appln. No. PCT/IB2014/059004, now, International Patent Appln. Pub.

Turning to `Nc1ncnc(N2CCC(C(=O)N3N=CC[C@H]3c3ccccc3)CC2)c1F` [Example 61, (S)-(1-(6-amino-5-fluoropyrimidin-4-yl)piperidin-4-yl)(5-phenyl-4,5-dihydro-1H-pyrazol-1-yl)methanone], the IC50 in assay [1] is 1 to 100 nM; at RIP1 kinase, 1 to 31.6 nM and 1 to 10 nM.
Consider `N#Cc1cccc([C@@H]2CC=NN2C(=O)C2CCN(c3cc(C(N)=O)ncn3)CC2)c1` [Example 70, (S)-6-(4-(5-(3-cyanophenyl)-4,5-dihydro-1H-pyrazole-1-carbonyl)piperidin-1-yl)pyrimidine-4-carboxamide], for which the IC50 was 1 to 100 nM in assay [1] and 1 to 31.6 nM on RIP1 kinase.
Consider `N#Cc1cncc(N2CCC(C(=O)N3N=CC[C@H]3c3ccccc3)CC2)n1` [Example 47, (S)-6-(4-(5-phenyl-4,5-dihydro-1H-pyrazole-1-carbonyl)piperidin-1-yl)pyrazine-2-carbonitrile], for which the values for the IC50 (in assay [1]; on RIP1 kinase) were 1 to 100 nM and 1 to 31.6 nM, respectively.
Take `O=C1NCCC1c1nc(N2CCC(C(=O)N3N=CC[C@H]3c3ccccc3)CC2)ncc1F` (stereo partly drawn) [Example 150, 3-(5-fluoro-2-(4-((S)-5-phenyl-4,5-dihydro-1H-pyrazole-1-carbonyl)piperidin-1-yl)pyrimidin-4-yl)pyrrolidin-2-one]: the IC50 is 1 to 100 nM in assay [1]; 1 to 31.6 nM and 1 to 10 nM at RIP1 kinase.
As to `N#Cc1coc(N2CCC(C(=O)N3N=CC[C@H]3c3cc(F)cc(F)c3)CC2)n1` [Example 135, (S)-2-(4-(5-(3,5-difluorophenyl)-4,5-dihydro-1H-pyrazole-1-carbonyl)piperidin-1-yl)oxazole-4-carbonitrile], the IC50 in assay [1] is 1 to 100 nM; at RIP1 kinase, 1 to 31.6 nM and 1 to 10 nM.
As to `CC(=O)Nc1cncc(N2CCC(C(=O)N3N=CC[C@H]3c3ccccc3)CC2)n1` [Example 64, (S)-N-(6-(4-(5-phenyl-4,5-dihydro-1H-pyrazole-1-carbonyl)piperidin-1-yl)pyrazin-2-yl)acetamide], the IC50 in assay [1] was 1 to 100 nM; at RIP1 kinase, 1 to 31.6 nM and 1 to 10 nM.
For `Nc1nccc(N2CCC(C(=O)N3N=CC[C@H]3c3ccccc3)CC2)n1` [Example 11, (S)-(1-(2-aminopyrimidin-4-yl)piperidin-4-yl)(5-phenyl-4,5-dihydro-1H-pyrazol-1-yl)methanone], the IC50 in assay [1] was 1 to 100 nM; on RIP1 kinase, 1 to 31.6 nM.
Consider `COc1cc(N2CCC(C(=O)N3N=CC[C@H]3c3cc(F)cc(F)c3)CC2)ncn1` [Example 91, (S)-(5-(3,5-difluorophenyl)-4,5-dihydro-1H-pyrazol-1-yl)(1-(6-methoxypyrimidin-4-yl)piperidin-4-yl)methanone], for which the IC50 was 1 to 100 nM in assay [1]; 1 to 31.6 nM and 1 to 10 nM on RIP1 kinase.
Regarding `CNc1nccc(N2CCC(C(=O)N3N=CC[C@H]3c3cc(F)cc(F)c3)CC2)n1` [Example 100, (S)-(5-(3,5-difluorophenyl)-4,5-dihydro-1H-pyrazol-1-yl)(1-(2-(methylamino)pyrimidin-4-yl)piperidin-4-yl)methanone], the values for the IC50 (in assay [1]; on RIP1 kinase) were 1 to 100 nM and 1 to 31.6 nM, respectively.
Turning to `COc1nccc(N2CCC(C(=O)N3N=CC[C@H]3c3ccccc3)CC2)n1` [Example 17, (S)-(1-(2-methoxypyrimidin-4-yl)piperidin-4-yl)(5-phenyl-4,5-dihydro-1H-pyrazol-1-yl)methanone], the IC50 in assay [1] was 1 to 100 nM; at RIP1 kinase, 1 to 31.6 nM and 1 to 10 nM.
For the compound `COc1cncc(N2CCC(C(=O)N3N=CC[C@H]3c3ccccc3)CC2)n1` [Example 48, (S)-(1-(6-methoxypyrazin-2-yl)piperidin-4-yl)(5-phenyl-4,5-dihydro-1H-pyrazol-1-yl)methanone], the IC50 in assay [1] is 1 to 100 nM; at RIP1 kinase, 1 to 31.6 nM.
For the compound `N#Cc1cncnc1N1CCC(C(=O)N2N=CC[C@H]2c2ccccc2)CC1` [Example 50, (S)-4-(4-(5-phenyl-4,5-dihydro-1H-pyrazole-1-carbonyl)piperidin-1-yl)pyrimidine-5-carbonitrile], the IC50 was 1 to 100 nM in assay [1]; 1 to 31.6 nM and 1 to 10 nM at RIP1 kinase.
As for `NC(=O)c1ncnc(N2CCC(C(=O)N3N=CC[C@H]3c3cc(F)cc(F)c3)CC2)c1F` [Example 165, (S)-6-(4-(5-(3,5-difluorophenyl)-4,5-dihydro-1H-pyrazole-1-carbonyl)piperidin-1-yl)-5-fluoropyrimidine-4-carboxamide], the IC50 in assay [1] is 1 to 100 nM; at RIP1 kinase it was 1 to 31.6 nM and 1 to 10 nM.
`O=C(C1CCN(c2ncc(F)c(OCCN3CCOCC3)n2)CC1)N1N=CC[C@H]1c1ccccc1` [Example 127, (S)-(1-(5-fluoro-4-(2-morpholinoethoxy)pyrimidin-2-yl)piperidin-4-yl)(5-phenyl-4,5-dihydro-1H-pyrazol-1-yl)methanone]: the IC50 in assay [1] is 1 to 100 nM; at RIP1 kinase, 1 to 31.6 nM and 1 to 10 nM.
Regarding `COc1ccnc(N2CCC(C(=O)N3N=CC[C@H]3c3cc(F)cc(F)c3)CC2)n1` [Example 79, (S)-(5-(3,5-difluorophenyl)-4,5-dihydro-1H-pyrazol-1-yl)(1-(4-methoxypyrimidin-2-yl)piperidin-4-yl)methanone], the IC50 in assay [1] is 1 to 100 nM; on RIP1 kinase, 1 to 31.6 nM and 1 to 10 nM.
For the compound `O=C(C1CCN(c2ccc3nccn3n2)CC1)N1N=CC[C@H]1c1cncc(F)c1` [Example 117, (S)-(5-(5-fluoropyridin-3-yl)-4,5-dihydro-1H-pyrazol-1-yl)(1-(imidazo[1,2-b]pyridazin-6-yl)piperidin-4-yl)methanone], the results for the IC50 (in assay [1]; at RIP1 kinase) were 1 to 100 nM and 1 to 31.6 nM, respectively.
Take `COc1ccnc(N2CCC(C(=O)N3N=CC[C@H]3c3cccc(C#N)c3)CC2)n1` [Example 69, (S)-3-(1-(1-(4-methoxypyrimidin-2-yl)piperidine-4-carbonyl)-4,5-dihydro-1H-pyrazol-5-yl)benzonitrile]: the IC50 in assay [1] was 1 to 100 nM; at RIP1 kinase, 1 to 31.6 nM and 1 to 10 nM.
With `O=C(C1CCN(c2nccc(=O)[nH]2)CC1)N1N=CC[C@H]1c1ccccc1` [Example 19, (S)-2-(4-(5-phenyl-4,5-dihydro-1H-pyrazole-1-carbonyl)piperidin-1-yl)pyrimidin-4(3H)-one], the IC50 in assay [1] was 1 to 100 nM; at RIP1 kinase, 1 to 31.6 nM.
For the compound `N#Cc1nccc(N2CCC(C(=O)N3N=CC[C@H]3c3ccccc3)CC2)n1` [Example 18, (S)-4-(4-(5-phenyl-4,5-dihydro-1H-pyrazole-1-carbonyl)piperidin-1-yl)pyrimidine-2-carbonitrile], the IC50 in assay [1] was 1 to 100 nM; on RIP1 kinase, 1 to 31.6 nM and 1 to 10 nM.
Regarding `CSc1nccc(N2CCC(C(=O)N3N=CC[C@H]3c3cc(F)cc(F)c3)CC2)n1` [Example 82, (S)-(5-(3,5-difluorophenyl)-4,5-dihydro-1H-pyrazol-1-yl)(1-(2-(methylthio)pyrimidin-4-yl)piperidin-4-yl)methanone], the IC50 in assay [1] is 1 to 100 nM; on RIP1 kinase, 1 to 31.6 nM and 1 to 10 nM.
For the compound `NC(=O)c1cnc(N2CCC(C(=O)N3N=CC[C@H]3c3cc(F)ccc3F)CC2)nc1` [Example 123, (S)-2-(4-(5-(2,5-difluorophenyl)-4,5-dihydro-1H-pyrazole-1-carbonyl)piperidin-1-yl)pyrimidine-5-carboxamide], the IC50 in assay [1] was 1 to 100 nM; at RIP1 kinase, 1 to 31.6 nM.
Turning to `N#Cc1cccc([C@@H]2CC=NN2C(=O)C2CCN(c3cc(C#N)ncn3)CC2)c1` [Example 68, (S)-6-(4-(5-(3-cyanophenyl)-4,5-dihydro-1H-pyrazole-1-carbonyl)piperidin-1-yl)pyrimidine-4-carbonitrile], the figures for the IC50 (in assay [1]; at RIP1 kinase) were 1 to 100 nM and 1 to 31.6 nM, respectively.
In the case of `NC(=O)c1csc(N2CCC(C(=O)N3N=CC[C@H]3c3ccccc3)CC2)n1` [Example 56, (S)-2-(4-(5-phenyl-4,5-dihydro-1H-pyrazole-1-carbonyl)piperidin-1-yl)thiazole-4-carboxamide], the IC50 in assay [1] was 1 to 100 nM; on RIP1 kinase, 1 to 31.6 nM.
Consider `NC(=O)c1cncc(N2CCC(C(=O)N3N=CC[C@H]3c3ccccc3)CC2)n1` [Example 31, (S)-6-(4-(5-phenyl-4,5-dihydro-1H-pyrazole-1-carbonyl)piperidin-1-yl)pyrazine-2-carboxamide], for which the IC50 was 1 to 100 nM in assay [1] and 1 to 31.6 nM on RIP1 kinase.
`O=C(C1CCN(c2nccc(CO)n2)CC1)N1N=CC[C@H]1c1ccccc1` [Example 130, (S)-(1-(4-(hydroxymethyl)pyrimidin-2-yl)piperidin-4-yl)(5-phenyl-4,5-dihydro-1H-pyrazol-1-yl)methanone]: the IC50 was 1 to 100 nM in assay [1] and 1 to 31.6 nM at RIP1 kinase.
`O=C(C1CCN(c2cc(C(F)(F)F)ncn2)CC1)N1N=CC[C@H]1c1ccccc1` [Example 51, (S)-(5-phenyl-4,5-dihydro-1H-pyrazol-1-yl)(1-(6-(trifluoromethyl)pyrimidin-4-yl)piperidin-4-yl)methanone]: the IC50 in assay [1] is 1 to 100 nM; on RIP1 kinase, 1 to 31.6 nM.
For `CCOC(=O)c1coc(N2CCC(C(=O)N3N=CC[C@H]3c3cc(F)cc(F)c3)CC2)n1` [Example 106, (S)-ethyl 2-(4-(5-(3,5-difluorophenyl)-4,5-dihydro-1H-pyrazole-1-carbonyl)piperidin-1-yl)oxazole-4-carboxylate], the IC50 is 1 to 100 nM in assay [1]; 1 to 31.6 nM and 1 to 10 nM on RIP1 kinase.
